Experimental data: PMC11784115, “Trypsin-instructed bioactive peptide nanodrugs with cascading transformations to improve chemotherapy against colon cancer” (Journal of Nanobiotechnology, 2025)
Where two headings read alike, the source gives them in different places. Where a SMILES comes first, the peptide text is derived from it. The star is where a group is joined. Acetyl(2-naphthyl) = O=C(Cc1ccc2ccccc2c1)*

Columns and labels:
[1] = Minimum gelation concentration (MGC) by vial inversion; format: physicochemical; details: PBS, neutral pH, Tps 5 U/mL or Dox 0.1 eq where present
Protocol: The enzyme-directed assembly behavior of 1-Pept was subsequently investigated. 1-Pept was dissolved in PBS solution, and the pH was adjusted to neutral condition. The formation of 1-Pept nanofibrillar hydrogels was monitored via a vial inversion method. 1-Pept/Tps NFs were obtained after mixing Tps (5 U/mL) with 1-Pept solution. The MGC of 1-Pept NFs and 1-Pept/Tps NFs could be determined when the samples could not flow.
1-Pept (1.0 wt%) was dissolved in PBS solution and mixed with 0.1 equivalents of Dox to obtain 1-Pept/Dox NFs (1.0 wt%/0.1 eq), and the solutions were kept at 25 °C to obtain 1-Pept/Dox NFs. The MGC, CAC, microscopic morphology, CD analysis, and viscoelasticity were tested according to the above procedures. The intermolecular force between 1-Pept and Dox was examined with fluorescent spectroscopy. Simply, Dox solution (20 µg/mL) was incubated with different concentrations (125, 62.5, 31.3, 15.6, 7.81, and 3.90 µg/mL) of 1-Pept solutions, and the fluorescent spectrum of the sample was recorded at a fixed excitation wavelength of […]. Ulteriorly, the electrostatic interactions between 1-Pept and Dox were explored by adding sodium chloride solution (2 M).

[2] = tested on: HT29 cells; format: cell-based, human
Protocol: HT29 cells were incubated in a 96-well microplate and cultured with 1-Pept/Dox NFs for 48 h. The concentrations of Dox were between 12.5 and 0.391 µM, and 1-Pept were between 125 and 3.91 µM. Then, a fixed volume of 20 µL MTT (5 mg/mL) was added to the wells for co-incubation. After 4 h, the generated formazan could be found. After dissolving in DMSO, the absorbance values were recorded at 490 nm utilizing a microplate reader (Multiskan FC). By comparing the absorbance of the samples and the controls, the cell’s survival rates were calculated. The IC50 values were obtained by Origin 8.0 software. Simultaneously, the MTT assays for NCM460, SW620, SW480, and HCT-15 were performed using the aforementioned procedures.

[3] = tested on: HT29-xenografted tumor; experiment: In vivo antitumor efficacy, HT29 xenograft; set-up: species or system BALB/C nude mice; details: for percentage of Ki67-positive signals in tumor tissues: tumor tissue, day 21
Protocol: HT29 tumor-bearing mice model was developed to study the antitumor effect in vivo of 1-Pept/Dox NFs. HT29 cell suspension (100 µL, 5.0 × 10^6 cells) was mixed with an equal volume of Matrigel. Then, the mixtures were subcutaneously injected into the right back of male BALB/C nude mice (6–8 weeks, Jinan Pengyue Experimental Animal Breeding Co., Itd, China). […] (1) PBS; (2) 1-Pept NFs; […] The dosage was fixed as 13 µmol/kg for Dox moiety and 130 µmol/kg for 1-Pept. The tumor size and body weight of the mice were determined every three days. The tumor size was obtained using the equation V = L×W^2/2, where L and W denote the length and width, respectively. At the end of the day 21st, the tumor tissues were collected for HE staining to observe morphological changes in tumor cells. The actin and tubulin staining of the cell sections was also conducted to study the cytoskeleton changes after drug treatment. The Ki-67 staining was conducted to observe the proliferative status of tumor cells. Meanwhile, the signals of TUNEL and expressions of activated caspase-3 were also measured by immunohistochemical staining.

[4] = tested on: rabbit red blood cells
Protocol: To begin with, the biocompatibility of 1-Pept/Dox NFs was explored from hematological compatibility and histocompatibility. The hemolysis ratio of 1-Pept/Dox NFs was evaluated based on rabbit red blood cells (RBCs). […] Then, the samples were first centrifuged to obtain the supernatant and measured the absorbance at 540 nm. Deionized water served as a positive group and 0.9% of the NaCl solution was utilized as a negative group. The hemolysis ratio of samples was obtained according to the hemolysis rate equation.

[5] = tested on: trypsin (Tps); experiment: in vitro; details: isolated enzyme
Protocol: 1-Pept (1 mg/mL) was dissolved in PBS solution, and the pH was modulated to a neutral condition. After that, Tps (1 U/mL) was added to the solution to trigger the conversion of 1-Pept (NapFFGYKCD) into Pept (NapFFGYK). At fixed time points, 50 µL 1-Pept solution was taken out and mixed with 150 µL methanol to obtain the mixed solution. Finally, the mixed solution was analyzed with HPLC-MS to investigate the conversion rate.

[6] = In vitro release from 1-Pept/Dox NFs (HPLC), Ritger-Peppas fitting; format: physicochemical
Protocol: The in vitro drug release profile of 1-Pept/Dox NFs was conducted in a constant temperature vibrator (40 rpm, 37 °C). 1-Pept/Dox NFs (200 µL, 1.0 wt%/0.1 eq) were prepared and incubated with 200 µL PBS buffer (pH = 7.4, 6.5 and 5.5). At particular time points, 200 µL liquid supernatant was sucked out and further analyzed by HPLC. Simultaneously, 200 µL fresh PBS was added to maintain a fixed volume. Free Dox solutions were used as controls.

[7] = free Dox solution, 12-h release

SMILES	minimum gelation concentration (MGC) [1] [wt%]	IC50 ([2]; 48 h) [µM]	percentage of Ki67-positive signals in tumor tissues [3] [%]	hemolysis rate ([4]; red cells of rabbit, 1 h, 1.0 wt%) [%]	metabolised at 72 h, 1 mg/mL [5] [%]	IC50 ([2]; HT29, 48 h, MTT, read-out: IC50 value of Dox) [µM]	cumulative release of Dox at 12 h ([6]; free Dox solution control, PBS, 37 °C, 40 rpm, HPLC) [%]	Ritger-Peppas exponential factor n, Dox release [6, 7]	Ritger-Peppas k, Dox release [6, 7]	tumor volume growth rate on the 21st day ([3]; peritumoral s.c. injection days 1, 4, 7, 10, 13 µmol/kg Dox, 130 µmol/kg 1-Pept)	hemolysis rate [4] [%]
NCCCC[C@H](NC(=O)[C@H](Cc1ccc(O)cc1)NC(=O)CNC(=O)[C@H](Cc1ccccc1)NC(=O)[C@H](Cc1ccccc1)NC(=O)Cc1ccc2ccccc2c1)C(=O)N[C@@H](CS)C(=O)N[C@@H](CC(=O)O)C(=O)O [1-Pept, 2-Naphthylacetic acid-Phe-Phe-Gly-Tyr-Lys-Cys-Asp] ({Acetyl(2-naphthyl)}-FFGYKCD-OH)	0.8	134	60	1.1	> 90	–	–	–	–	–	–
COc1cccc2c1C(=O)c1c(O)c3c(c(O)c1C2=O)C[C@@](O)(C(=O)CO)C[C@@H]3O[C@H]1C[C@H](N)[C@H](O)[C@H](C)O1 [Dox, Doxorubicin]	–	–	45	–	–	2.8	51	0.35	0.21	3.3	2.8
